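How tested: cells in 96-well plates exposed to compound for 48 hours at five concentrations. GI50 marks 50% less growth.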 Calls of active or inactive are those of the source. Cut-off read from the data, not from the text of the source: active = GI50 up to about 1.1 µM and inactive = higher.
Columns and labels:
Experiment in all cases: NCI-60 cell line screen, 48 h
[1] = system: RPMI-8226
[2] = system: NCI-H460
[3] = system: HL-60
[4] = system: HOP-92
[5] = system: NCI-H226
[6] = system: HCT-116
[7] = system: SK-MEL-5
[8] = system: SF-295
[9] = system: HOP-62
[10] = system: NCI-H522
[11] = system: SW-620
[12] = system: NCI/ADR-RES
[13] = system: SK-OV-3
[14] = system: RXF 393
[15] = system: NCI-H23
[16] = system: CAKI-1
[17] = system: OVCAR-5
[18] = system: LOX IMVI
[19] = system: MDA-MB-435
[20] = system: SF-539

Measured: GI50

COc1cc(C(c2cc3c(cc2O)OCO3)N2CCCCC2)cc(OC)c1OC (stereo not given)
inactive: [1] 2.96 µM | [2] 21.8 µM | [3] 1.76 µM | [4] 9.25 µM | [5] 16.1 µM | [6] 15.4 µM | [7] 19.1 µM | [8] 41.5 µM | [9] 30 µM | [10] 11.8 µM | [11] 4.57 µM | [12] 17.5 µM | [13] 22.2 µM | [14] 13.2 µM | [15] 15.2 µM | [16] 12.1 µM | [17] 17.8 µM | [18] 14.8 µM | [19] 5.02 µM | [20] 17.9 µM

COc1ccc2o/c(=N/c3ccccc3)c(C(N)=O)cc2c1
inactive: [1] > 100 µM | [2] > 100 µM | [3] > 100 µM | [4] > 50.9 µM | [5] > 85.3 µM | [6] > 69.8 µM | [7] > 100 µM | [8] 74 µM | [9] 32.2 µM | [10] > 54.8 µM | [11] > 100 µM | [12] > 69.8 µM | [13] 39.2 µM | [14] 39.5 µM | [15] > 58.1 µM | [16] > 71.3 µM | [17] > 100 µM | [18] > 100 µM | [19] 3.45 µM | [20] > 75.3 µM

COc1cc(OC)c2c(O)c3c(cc2c1)CC(C)(C)CC3=O
inactive: [1] > 100 µM | [2] > 100 µM | [3] > 32.7 µM | [4] > 100 µM | [5] > 100 µM | [6] > 100 µM | [7] > 100 µM | [8] > 72.6 µM | [9] 97.3 µM | [10] > 64.3 µM | [11] 59 µM | [12] > 100 µM | [13] > 100 µM | [14] > 100 µM | [15] > 100 µM | [16] > 100 µM | [17] > 100 µM | [18] > 100 µM | [19] 19.4 µM | [20] > 100 µM

COc1ccc(COCCOCc2nc(C#N)c(N)o2)cc1
inactive: [1] > 100 µM | [2] > 100 µM | [3] > 100 µM | [4] > 100 µM | [5] > 100 µM | [6] > 100 µM | [7] > 100 µM | [8] > 100 µM | [9] > 100 µM | [10] 6.79 µM | [11] > 100 µM | [12] > 100 µM | [13] > 100 µM | [14] > 100 µM | [15] > 100 µM | [16] 89.9 µM | [17] > 100 µM | [18] > 100 µM | [19] > 100 µM | [20] > 100 µM

CCOc1ccc(-n2c(=O)c3nn4c(=O)n(-c5ccc(OCC)cc5)c(=O)c4nn3c2=O)cc1
inactive: [1] > 100 µM | [2] > 100 µM | [3] > 100 µM | [4] 30.9 µM | [5] > 100 µM | [6] > 100 µM | [7] > 100 µM | [8] 43.3 µM | [9] 77.8 µM | [10] > 100 µM | [11] > 100 µM | [12] > 100 µM | [13] > 100 µM | [14] 44.6 µM | [15] > 100 µM | [16] > 100 µM | [17] > 100 µM | [18] > 100 µM | [19] > 100 µM | [20] > 100 µM

COc1ccc(Cc2n[nH]c(Nc3ccc(Br)cc3)nc2=O)cc1OC
inactive: [1] > 100 µM | [2] > 100 µM | [3] 57 µM | [4] > 100 µM | [5] > 100 µM | [6] 64.3 µM | [7] > 87.9 µM | [8] > 100 µM | [9] 42.9 µM | [10] 57.7 µM | [11] > 100 µM | [12] > 100 µM | [13] > 100 µM | [14] > 100 µM | [15] > 100 µM | [16] > 100 µM | [17] > 100 µM | [18] 69.5 µM | [19] 14.2 µM | [20] > 100 µM

[N-]=[N+]=Nc1ccc2c(c1)Sc1ccccc1N2CCCCCl
inactive: [1] 23.3 µM | [2] 83.2 µM | [3] 15.3 µM | [4] 32.2 µM | [5] 48.9 µM | [6] 30.2 µM | [7] 14.9 µM | [8] > 100 µM | [9] > 100 µM | [10] 40.7 µM | [11] 88.3 µM | [12] > 100 µM | [13] > 100 µM | [14] 78.9 µM | [15] 41.8 µM | [16] > 100 µM | [17] > 100 µM | [18] 36.8 µM | [19] 51.4 µM | [20] > 100 µM
